Assay results: patent US20120065165A1, “COMPOSITIONS AND METHODS OF TREATING ENDOTHELIAL DISORDERS” (ARGINETIX, INC, priority 2008, published 2012)

What was measured:
aged Fisher rats [1] = assay: Erectile function: intracavernous pressure after cavernous nerve stimulation in aged rats; format: in vivo, rat; conditions: ABH 6 mg/kg in drinking water 28 days
Protocol: Aged (22-26 months) Fisher rats were given either ABH (6 mg/kg in their drinking water) or plain water for 28 days. Young (4-8 months) were given plain water for 28 days. Rats were then anesthetized and erectile function was evaluated as an indicator of vascular function, by measuring intra-cavernous pressure following electrical stimulation of the cavernous nerve using an electrode placed around the pelvic nerve which innervates the penis (Cama, et al., 2003 Biochemistry 42: 8445-8451). The change in intracavernosal pressure was measured via a catheter placed in the corpora cavernosa. A range of stimulation frequencies were used to measure relaxation effects (and consequentially vascular dependent erectile responses) over their entire functional range.

aged Fisher rats [2] = assay: Vascular stiffness by pulse wave velocity (PWV) in Fisher rats; format: in vivo, rat
Protocol: When the heart contracts it generates a pulse, or energy wave, that travels through the circulatory system. […] PWV was determined in aged (22-26 months) Fisher rats, treated with ABH as described in Example 1. […] PWV was measured before and after 28 days of treatment with ABH (6 mg/kg) (See FIG. 5A). ABH improved vascular function in aortic rings tested in organ chambers (See FIG. 5B), while an endothelial-independent NO donor, SNP had no effect (C). *p<0.01 vs. young and #p<0.05 vs. old pre-treated, (n=3-8). […] This affect was not observed in untreated aged rats. There was a small but statistically significant increase in vascular stiffness in young control rats over the 28 days of the experiment. This change however was not observed in rats that were treated with ABH.

rat aortic rings = assay: Vasorelaxation of aortic rings in organ chambers after 28 days oral ABH; format: in vivo
Protocol: To investigate whether these changes in vascular stiffness could be related to specific measures of endothelial function, rats were euthanized following treatment, and the thoracic aortas dissected and placed in organ chambers as previously described (White, et al., 2006 Hypertension 47: 245-251). Rat aortic rings were pre-constricted using phenylephrine (1 μM), and vasorelaxant response to the endothelial-dependent (NO mediated) vasodilator acetylcholine (ACh), administered at 1 μM to 10 μM, was determined. […] ABH had no effect on vascular endothelial relaxation in young rats.

old rat aorta = assay: ROS production in aortic rings (DHE fluorescence); format: cell-based; conditions: aged rat aortas
Text: ABH improves endothelial function by inhibiting arginase and consequently increasing NO production (by increasing L-arginine availability to eNOS) and decreasing levels of ROS (by preventing eNOS uncoupling). […] Aortic rings were dissected and pinned down, endothelial side up, on a silastic coated culture dish, and then exposed to either the NO-sensitive dye DAF, or the O2-sensitive dye DHE. Since the interaction of NO or ROS with its specific dye is cumulative, the rate of production of each species is proportional to the slope of the fluorescence emitted from the dye as measured using epifluorescence microscopy. […] SNP endothelial-independent NO donor was included as a control (Santhanam et al 2007).
This supports the hypothesis that arginase inhibition results in increased vascular NO production. A corollary of this effect is a decrease in ROS production by re-coupling eNOS to NO production. […] This resulted from deranged NOS activity (uncoupled NOS), since ROS levels could be reduced using the NOS-inhibitor nitro-L-arginine methyl ester (FIG. 6C). […] Similar techniques are used to examine whether ABH can restore NO production and decrease ROS production in vascular endothelial cells and corporal tissue from type 2 diabetic rats.

diabetic ZDF rats [3] = assay: Oral ABH in type 2 diabetic ZDF rats: vascular and erectile function (Example 7); format: in vivo, rat
Text: The effects of ABH in the ZDF rat model of type 2 diabetes after systemic in vivo administration is investigated as described below. […] Given the similarities in indicators of vascular dysfunction between aged rats and diabetic animals and humans with respect to elevated arginase and decreased NO the prediction is that orally-administered ABH will result in similar improvements in vascular and erectile function in the type 2 diabetic ZDF rats. […] ABH is hypothesized to inhibit pathologically elevated vascular arginase, restore normal eNOS coupling, and enhance both erectile and vascular endothelial function. […]
ZDF rats are made diabetic by feeding a high-fat diet, while a cohort of ZLC rats are fed a normal diet. […] Aortic PWV is calculated as the separation distance divided by the difference in arrival times of the rat's pulse, with respect to the R-peak of the electrocardiogram (ECG), reported in meters per second (m/s).
At the end of the 4 week treatment period, erectile function is determined in vivo. […] Erectile response to electrical field stimulation (neurogenic response) is measured by catheterizing the right crus, and connecting it to a pressure transducer to permit continuous measurement of intracavernosal pressure (ICP). […] The erectile response (ICP) to injections of […] is determined. ICP is monitored during ACh administration, and until it returns to baseline. […]

diabetic ZDF rats [4] = assay: ABH plus PDE5 inhibitor in diabetic ZDF rats: erectile function and vasorelaxation (Example 8); format: in vivo, rat; conditions: ABH alone
Protocol: The effects of ABH and PDE5 inhibitors, singly and in combination, in the ZDF model of type 2 diabetes are tested.
ZLC rats are maintained on a normal diet. […] Ten to twenty minutes prior to each in vivo vasorelaxation experiment, animals will receive a single intravenous dose of the PDE5 inhibitor, sildenafil citrate (Viagra; either 1 or 2 mg/kg iv) or vehicle alone. […] Peak intracavernous pressure, ICP/mean arterial pressure (MAP), and total ICP (area under the erectile curve) are determined in response to intra-cavernous administration of the endothelium-dependent vasodilator ACh, and in response to direct cavernous nerve stimulation. Animals will then be euthanized, and aortas and penile vascular tissues are collected. Biochemical (arginase, NO, eNOS, ROS) and functional (contraction and relaxation in organ baths) indicators of endothelial health are determined in aortic rings and cavernous strips.

[5] = cavernous nerve stimulation, vs controls

N[C@@H](CCCCB(O)O)C(=O)O [ABH, 2(S)-Amino-6-boronohexanoic acid]
all penile hemodynamic parameters after CNS (aged Fisher rats [1]): marked improvement | ratio of mean peak intracavernous pressure (ICP) to mean arterial pressure (MAP) (aged Fisher rats [1]; [5]): marked increase | total ICP (area under the erectile curve) (aged Fisher rats [1]; [5]): marked increase | vascular stiffness (pulse wave velocity, PWV) (aged Fisher rats [2]; aged (22-26 months) rats, ABH 6 mg/kg 28 days): marked decrease in vascular stiffness | increase in vascular stiffness over the 28 days of the experiment (aged Fisher rats [2]; young rats, ABH treated vs young control rats): not observed | responses to the endothelial-independent NO donor SNP in aortic rings (rat aortic rings; after 28 days oral ABH): not affected | vascular relaxation to acetylcholine (ACh) in aortic rings (rat aortic rings; aged rats, 28 days oral ABH, rings pre-constricted with phenylephrine 1 μM): substantially improved | vascular endothelial relaxation in aortic rings (rat aortic rings; young rats): no effect | ROS production (old rat aorta): significantly reduced | vascular arginase activity and vascular ROS concentration (diabetic ZDF rats [3]; ABH orally four weeks, vs untreated diabetic ZDF rats): significant decreases | in vivo erectile function, pulse wave velocity and ex vivo vasorelaxation (diabetic ZDF rats [3]; ABH orally in drinking water four weeks, vs untreated ZDF rats): significant improvements | erectile function (diabetic ZDF rats [4]): some positive effects
